Data taken from paper PMC4891385 (Clinical Drug Investigation, 2016).

Legend:
[1] = biological target: T1, OAT1 (Homo sapiens, UniProt Q4U2R8); experiment: [14C]-lesinurad uptake, substrate test, OAT1 oocytes; assay type: in vitro ADME
T1 sequence (Q4U2R8 1-563): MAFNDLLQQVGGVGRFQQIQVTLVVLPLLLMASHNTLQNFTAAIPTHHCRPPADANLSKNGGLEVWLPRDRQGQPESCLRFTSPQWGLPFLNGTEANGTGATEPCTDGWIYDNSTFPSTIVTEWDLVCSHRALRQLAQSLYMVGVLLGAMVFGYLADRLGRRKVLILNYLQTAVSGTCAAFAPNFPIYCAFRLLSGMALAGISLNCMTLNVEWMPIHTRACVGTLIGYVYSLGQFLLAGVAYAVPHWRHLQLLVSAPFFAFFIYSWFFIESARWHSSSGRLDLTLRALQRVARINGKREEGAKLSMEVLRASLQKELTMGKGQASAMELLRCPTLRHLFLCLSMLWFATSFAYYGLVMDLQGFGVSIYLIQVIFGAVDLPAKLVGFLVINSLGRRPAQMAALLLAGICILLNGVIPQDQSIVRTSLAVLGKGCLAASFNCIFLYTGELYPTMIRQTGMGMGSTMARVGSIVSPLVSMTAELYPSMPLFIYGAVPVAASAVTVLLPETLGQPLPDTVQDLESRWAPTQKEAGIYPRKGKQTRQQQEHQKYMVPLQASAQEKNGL

[2] = biological target: T2, OCT2 (Homo sapiens, UniProt O15244); experiment: [14C]-lesinurad uptake, substrate test, hOCT2 MDCK-II cells; assay type: in vitro ADME
T2 sequence (O15244 1-555): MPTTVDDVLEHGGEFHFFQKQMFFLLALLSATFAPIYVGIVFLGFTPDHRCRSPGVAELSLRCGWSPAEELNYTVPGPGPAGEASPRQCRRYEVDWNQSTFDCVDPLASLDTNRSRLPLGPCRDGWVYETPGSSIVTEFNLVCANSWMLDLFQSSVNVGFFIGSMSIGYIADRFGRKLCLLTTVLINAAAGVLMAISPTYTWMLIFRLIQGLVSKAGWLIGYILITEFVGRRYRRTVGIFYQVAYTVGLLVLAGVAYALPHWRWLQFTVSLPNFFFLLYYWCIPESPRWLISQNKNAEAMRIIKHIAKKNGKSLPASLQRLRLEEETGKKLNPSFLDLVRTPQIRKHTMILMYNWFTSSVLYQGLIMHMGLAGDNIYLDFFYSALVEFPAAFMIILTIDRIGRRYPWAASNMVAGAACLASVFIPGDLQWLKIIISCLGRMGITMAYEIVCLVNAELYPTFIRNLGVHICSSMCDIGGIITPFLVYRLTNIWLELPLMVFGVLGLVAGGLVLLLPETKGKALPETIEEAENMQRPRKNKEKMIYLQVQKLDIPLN

[3] = biological target: T3, OATP1B3 (Homo sapiens, UniProt Q9NPD5); experiment: [14C]-lesinurad uptake, substrate test, hOATP1B3 MDCK-II cells; assay type: in vitro ADME
T3 sequence (Q9NPD5 1-702): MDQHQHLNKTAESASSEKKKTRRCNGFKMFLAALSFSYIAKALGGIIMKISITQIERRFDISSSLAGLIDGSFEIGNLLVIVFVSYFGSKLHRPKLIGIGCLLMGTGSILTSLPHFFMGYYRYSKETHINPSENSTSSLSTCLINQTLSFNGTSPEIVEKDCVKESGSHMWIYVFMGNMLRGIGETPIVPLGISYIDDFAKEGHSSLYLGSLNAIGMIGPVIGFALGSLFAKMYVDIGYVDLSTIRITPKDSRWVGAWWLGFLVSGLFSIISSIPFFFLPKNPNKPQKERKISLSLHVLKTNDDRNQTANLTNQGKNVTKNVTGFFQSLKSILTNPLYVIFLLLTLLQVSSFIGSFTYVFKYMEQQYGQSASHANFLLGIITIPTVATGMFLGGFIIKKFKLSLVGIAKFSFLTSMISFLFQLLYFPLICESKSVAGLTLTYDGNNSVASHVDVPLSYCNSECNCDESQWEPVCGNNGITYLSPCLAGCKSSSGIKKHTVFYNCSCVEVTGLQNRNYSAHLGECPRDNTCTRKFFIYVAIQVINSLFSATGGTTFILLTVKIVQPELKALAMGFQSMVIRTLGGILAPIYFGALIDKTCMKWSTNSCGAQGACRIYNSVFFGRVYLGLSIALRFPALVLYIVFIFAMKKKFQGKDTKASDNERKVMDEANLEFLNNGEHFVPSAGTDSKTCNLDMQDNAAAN

[4] = biological target: T4, OCT1 (Homo sapiens, UniProt O15245); experiment: [14C]-lesinurad uptake, substrate test, hOCT1 MDCK-II cells; assay type: in vitro ADME
T4 sequence (O15245 1-554): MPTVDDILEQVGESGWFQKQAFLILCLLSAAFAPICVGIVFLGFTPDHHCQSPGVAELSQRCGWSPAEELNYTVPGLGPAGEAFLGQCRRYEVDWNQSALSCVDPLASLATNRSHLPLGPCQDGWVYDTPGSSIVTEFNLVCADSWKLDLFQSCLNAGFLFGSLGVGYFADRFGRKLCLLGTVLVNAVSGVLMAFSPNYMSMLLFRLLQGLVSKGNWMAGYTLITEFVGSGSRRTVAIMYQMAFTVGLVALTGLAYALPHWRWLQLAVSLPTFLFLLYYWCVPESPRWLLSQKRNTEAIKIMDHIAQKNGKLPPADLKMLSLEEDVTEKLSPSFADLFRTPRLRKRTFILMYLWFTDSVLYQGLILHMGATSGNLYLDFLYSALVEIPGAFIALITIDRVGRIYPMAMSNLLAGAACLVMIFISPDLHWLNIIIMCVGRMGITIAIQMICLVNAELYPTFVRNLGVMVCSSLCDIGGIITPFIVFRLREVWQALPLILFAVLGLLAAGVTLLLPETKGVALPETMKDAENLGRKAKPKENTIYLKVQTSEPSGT

[5] = biological target: P-gp (Homo sapiens, UniProt P08183); experiment: [14C]-lesinurad substrate test, MDCK-MDR1 cells; assay type: in vitro ADME
[6] = no reference given; cited from earlier work

Chain of P-gp (P08183 whole entry): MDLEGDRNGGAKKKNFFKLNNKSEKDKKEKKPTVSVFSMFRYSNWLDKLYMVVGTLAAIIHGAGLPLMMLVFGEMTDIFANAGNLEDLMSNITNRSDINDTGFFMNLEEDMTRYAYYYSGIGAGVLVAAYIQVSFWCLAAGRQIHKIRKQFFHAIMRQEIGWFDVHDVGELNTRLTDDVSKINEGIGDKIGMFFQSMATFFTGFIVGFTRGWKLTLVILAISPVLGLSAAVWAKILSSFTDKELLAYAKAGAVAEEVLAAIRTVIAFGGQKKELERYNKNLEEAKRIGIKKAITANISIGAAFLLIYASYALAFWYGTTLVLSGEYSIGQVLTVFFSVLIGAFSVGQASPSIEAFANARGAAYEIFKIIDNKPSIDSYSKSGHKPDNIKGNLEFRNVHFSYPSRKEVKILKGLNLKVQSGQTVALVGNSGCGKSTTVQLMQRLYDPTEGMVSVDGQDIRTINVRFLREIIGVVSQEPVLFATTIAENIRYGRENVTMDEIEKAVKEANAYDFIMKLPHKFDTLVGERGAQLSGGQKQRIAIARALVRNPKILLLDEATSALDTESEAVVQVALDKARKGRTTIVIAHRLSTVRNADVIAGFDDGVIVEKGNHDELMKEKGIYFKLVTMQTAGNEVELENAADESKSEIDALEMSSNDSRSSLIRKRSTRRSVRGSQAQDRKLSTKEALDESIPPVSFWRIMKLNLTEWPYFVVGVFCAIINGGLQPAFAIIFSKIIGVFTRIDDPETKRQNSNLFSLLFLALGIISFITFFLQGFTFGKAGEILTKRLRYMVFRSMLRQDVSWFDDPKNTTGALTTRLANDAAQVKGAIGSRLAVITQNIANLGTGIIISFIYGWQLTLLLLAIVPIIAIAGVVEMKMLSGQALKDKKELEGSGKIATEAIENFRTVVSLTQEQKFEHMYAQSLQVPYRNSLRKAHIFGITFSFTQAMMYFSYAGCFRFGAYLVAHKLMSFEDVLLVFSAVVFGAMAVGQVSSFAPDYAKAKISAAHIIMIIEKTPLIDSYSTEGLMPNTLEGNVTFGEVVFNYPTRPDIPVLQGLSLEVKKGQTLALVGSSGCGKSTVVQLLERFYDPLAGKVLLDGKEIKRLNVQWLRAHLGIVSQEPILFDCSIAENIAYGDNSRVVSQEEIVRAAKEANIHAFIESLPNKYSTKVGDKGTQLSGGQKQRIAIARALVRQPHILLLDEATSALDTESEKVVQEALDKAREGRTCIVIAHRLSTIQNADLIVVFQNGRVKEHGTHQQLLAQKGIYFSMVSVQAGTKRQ

For O=C(O)CSc1nnc(Br)n1-c1ccc(C2CC2)c2ccccc12 [lesinurad], the Lesinurad as substrate [1] was “substrate”, the Lesinurad as substrate [2] was “not a substrate” and the Lesinurad as substrate [3] was “not a substrate”. The Lesinurad as substrate [4] was “weak substrate”, the Lesinurad as substrate [5] was “not a substrate” and the “accumulation during multiple once-daily dosing” value [6] was “does not accumulate”.
